From patent publication US6465494B1, “Methods for treatment of cystic fibrosis” (Cell Pathways, Inc., priority 2001, dated 2002)
Structures can show the parent of a compound that is named as a salt.

How the values were obtained:
[1] = 91-day oral study in dogs; assay type: in vivo
[2] = acute toxicity study in rats; conditions: rat, in vivo; for LD50: rats
PDE1 = assay: PDE inhibition, similar protocols: PDE1; assay type: biochemical
PDE5 = PDE5 (Homo sapiens, UniProt O76074); assay: cGMP PDE inhibition, 3H-cGMP hydrolysis: PDE5; assay type: biochemical; parameters: partially purified cGMP-specific PDE isolated from HT-29 cells; endogenous in cells; host or cells: HT-29
Protocol: (Thompson, W. J., Teraski, W. L., Epstein, P. M., Strada, S. J., Advances in Cyclic Nucleotide Research, 10:69-92, 1979, which is incorporated herein by reference). […] The mixture is incubated at 30° C. for 10 minutes with isolated PDE2 and/or PDE5. Reactions are terminated, for example, by boiling the reaction mixture for 75 seconds. After cooling on ice, 100 μl of 0.5 mg/mL snake venom (O. Hannah venom available from Sigma) is added and incubated for 10 minutes at 30° C. This reaction is then terminated by the addition of an alcohol, e.g. 1 mL of 100% methanol. Assay samples are applied to 1 mL Dowex 1-X8 column; and washed with 1 mL of 100% methanol. The amount of radioactivity in the breakthrough and the wash from the column is combined and measured with a scintillation counter. The degree of phosphodiesterase inhibition is determined by calculating the amount of radioactivity in drug-treated reactions and comparing against a control sample (a reaction mixture lacking the tested compound but with drug solvent).
Compounds of this invention are also PDE2 and PDE5 inhibitors as taught in part U.S. patent application Ser. No. 09/046,739 filed Mar. 24, 1998. […] The amount of radioactivity in the breakthrough and the wash from the columns in then measured with a scintillation counter. […]

[3] = acute and seven-dose toxicity in dogs (capsules); conditions: dog, in vivo
Protocol: Therefore, these dogs were subsequently administered seven consecutive doses of 1000 mg/kg/day.

[4] = seven-day dose-range finding study in rats; assay type: in vivo; conditions: 7 days
PDE4 = assay: PDE inhibition, similar protocols: PDE4; assay type: biochemical
[5] = single, escalating dose human clinical safety study; assay type: in vivo; conditions: oral, 50 mg BID, 100 mg BID, 200 mg BID and 400 mg BID
[6] = target: T1, GST-cGB-PDE5 fusion protein (Homo sapiens, UniProt O76074); assay: cGMP binding assay with GST-cGB-PDE5 fusion protein; conditions: 3H-cGMP 2 μM, 22° C., 1 hour
T1 construct: made in house; host or cells: E. coli BL21 (DE3)
Source text: RT-PCR method is used to obtain the cGB domain of PDE5 with forward and reverse primers designed from bovine PDE5A cDNA sequence (McAllister-Lucas L. M et al, J. Biol. Chem. 268, 22863-22873, 1993) and the selection among PDE 1-10 families. 5′-3′, Inc. kits for total RNA followed by oligo (dT) column purification of mRNA are used with HT-29 cells. […] It is then cloned into pGEX-5X-3 glutathione-S-transferase (GST) fusion vector (Pharmacia Biotech )with tac promoter, and EcoRI and XhoI cut sites. The fusion vector is then transfected into E. Coli BL21 (DE3) bacteria (Invitrogen). The transfected BL21 bacteria is grown to log phase, and then IPTG is added as an inducer. The induction is carried at 20° C. for 24 hrs. The bacteria are harvested and lysed. The soluble cell lysate is incubated with GSH conjugated Sepharose 4B (GSH-Sepharose 4B). The GST-cGB-PDE5 fusion protein can bind to the GSH-Sepharose beads, and the other proteins are washed off from beads with excessive cold PBS.
Then, the mixture is transferred to Brandel MB-24 cell harvester with GF/B as the filter membrane followed by 2 washes with 10 mL of cold 5 mM potassium buffer(pH 6.8). The membranes are then cut out and transferred to scintillation vials followed by the addition of 1 mL of H2O and 6 mL of Ready Safe™ liquid scintillation cocktail to each vial. The vials are counted on a Beckman LS 6500 scintillation counter.
The quenching by filter membrane or other debris are also calibrated.

28-day study in rats = assay type: in vivo
Protocol: A 28-day study in rats was also carried out at 0, 50, 500 and 2000 mg/kg/day.

[7] = 28 days, 50, 500 and 2000 mg/kg/day

CC1=C(CC(=O)NCc2ccccc2)c2cc(F)ccc2/C1=C\c1ccncc1 [Example 38, (Z)-5-fluoro-2-methyl-(4-pyridylidene)-3-(N-benzyl)indenylacetamide hydrochloride]
tolerability ([1]; 91 days): well tolerated
feces observation ([1]; 91 days, 150 and 300 mg/kg/day): Orange discoloration of the feces
body weights ([1]; 91 days, highest dose group): Slightly lowered body weights
liver weights ([1]; 91 days, highest dose group): increased liver weights
microscopic alterations of liver ([1]; 91 days, highest dose group): no microscopic alterations
toxicological effects overall ([1]; oral, 91 consecutive days, 50, 150 and 300 mg/kg/day): no toxicological effects
acute toxicity on a single-dose basis [2]: not acutely toxic
body weight gain ([2]; ip, 1000 mg/kg): reduced body weight gain
necropsy finding ([2]; ip, 1000 mg/kg): mesenteric adhesions seen in some animals
LD50 ([2]; ip, 1000 mg/kg, intraperitoneal, read-out: intraperitoneal LD50): > 1000 mg/kg
body weight gains ([2]; po, 2000 mg/kg): slightly reduced
LD50 ([2]; oral, read-out: oral LD50): > 2000 mg/kg
IC50 (PDE1): 3 µM
IC50 (PDE5): 4 µM
LD50 ([3]; both sexes, 1000 mg/kg, dogs, oral): > 1000 mg/kg
signs of toxicity ([3]; 1000 mg/kg): no signs of toxicity
signs of drug-related effects ([3]; 1000 mg/kg/day): At no time in either dosing phase were any obvious signs of drug-related effects observed
observable signs of toxicity ([4]; 50 mg/kg/day): no observable signs of toxicity
treatment-related effects ([4]; 500 mg/kg/day): limited to an increase in absolute and relative liver weights in female rats
treatment-related effects ([4]; 2000 mg/kg/day): labored breathing and/or abnormal respiratory sounds, decreased weights gains and food consumption in male rats, and increased liver weights in female rats
hematological, blood chemistry and microscopic pathology changes ([4]; any dose level (50, 500, 2000 mg/kg/day)): No hematological or blood chemistry changes nor any microscopic a pathology changes
IC50 (PDE4): 6 µM
side effects [5]: no significant side effects at any dose
competition with cGMP in binding to the cGMP binding sites of GST-cGB-PDE5 [6]: does not bind to the cGMP-binding site of PDE5
macroscopic tissue changes at necropsy (28-day study in rats; 28 days): No macroscopic tissue changes
histopathological evaluation of tissues (28-day study in rats; 28 days, 500 mg/kg/day): one female at 500 mg/kg/day had increased mitotic figures in the thyroid gland
liver weights (28-day study in rats; 28 days, 2000 mg/kg/day): statistically significant increase in liver weights
thyroid weights (28-day study in rats; 28 days, 2000 mg/kg/day): statistically significant increases in thyroid weights
body weight changes, ophthalmoscopic examinations, hematological and blood chemistry values, urinalysis (28-day study in rats; [7]): unremarkable
clinical observations (28-day study in rats; [7]): no abnormal clinical observations
liver and thyroid weight increases at the lower doses (28-day study in rats; 28 days, 50 and 500 mg/kg/day): not statistically significant
histopathological evaluation of tissues (28-day study in rats; 28 days, small number of animals at 2000 mg/kg/day): traces of follicular cell hypertrophy, increased numbers of mitotic figures (suggestive of possible cell proliferation) in the thyroid gland and mild centrilobular hypertrophy in the liver
